Data from patent publication US6787535B2, “Indole derivatives with 5HT6 receptor affinity” (Syntex (U.S.A.) LLC, priority 2001, dated 2004).

Structure (SMILES)	melting point
Cc1[nH]c2c(N3CCNCC3)cccc2c1S(=O)(=O)c1ccc(F)cc1 [compound 603, 3-(4-fluorobenzenesulfonyl)-2-methyl-7-piperazin-1-yl-1H-indole]	232 to 236 °C
CN1CCC(c2cccc3c(S(=O)(=O)c4ccc(F)cc4)c[nH]c23)CC1 [compound 510, 3-(4-fluoro-benzenesulfonyl)-7-(1-methyl-piperidin-4-yl)-1H-indole]	178 to 182 °C
O=S(=O)(c1ccc(F)cc1)c1c[nH]c2ccc(N3CCNCC3)cc12 [compound 207, 3-(4-fluoro-benzenesulfonyl)-5-piperazin-1-yl-1H-indole]	289 to 291 °C
O=S(=O)(c1ccccc1)c1c[nH]c2ccc(N3CCNCC3)cc12	254 to 264 °C (dec.)
O=S(=O)(c1ccccc1Cl)c1c[nH]c2ccc(N3CCNCC3)cc12 [compound 206, 3-(2-chloro-benzenesulfonyl)-5-piperazin-1-yl-1H-indole]	> 300 °C
CN1CCN(c2cccc3c(S(=O)(=O)c4cccc(Cl)c4)c[nH]c23)CC1 [compound 505, 3-(3-chloro-benzenesulfonyl)-7-(4-methyl-piperazin-1-yl)-1H-indole]	163 to 171 °C
CN1CCN(c2cccc3c(S(=O)(=O)c4ccc(Cl)cc4Cl)c[nH]c23)CC1 [compound 506, 3-(2,4-dichloro-benzenesulfonyl)-7-(4-methyl-piperazin-1-yl)-1H-indole]	199 to 203 °C
Cn1cc(S(=O)(=O)c2ccccc2C(F)(F)F)c2cccc(N3CCNCC3)c21 [compound 404, 1-methyl-7-piperazin-1-yl-3-(2-trifluoromethyl-benzenesulfonyl)-1H-indole]	295 °C
Cn1cc(S(=O)(=O)c2ccccc2Cl)c2cccc(N3CCNCC3)c21 [compound 407, 3-(2-chloro-benzenesulfonyl)-1-methyl-7-piperazin-1-yl-1H-indole]	295 to 297 °C
Cn1cc(S(=O)(=O)c2ccc(F)cc2)c2cccc(N3CCNCC3)c21 [compound 405, 3-(4-fluoro-benzenesulfonyl)-1-methyl-7-piperazin-1-yl-1H-indole]	300 °C
